Consider eight compounds from US9340590B2 (priority 2011, dated 2016).

Read-outs that look alike come from different tables or passages of the source. Positions of bridges follow the written chain, without caps; N, C: chain ends. Residues, ends and D or L forms follow the SMILES beside them.

Assay [1] concerns the target hNav1.5 (Homo sapiens, UniProt Q14524). Briefly: cell-based.
In assay [2] the target is hNav1.3 (Homo sapiens, UniProt Q9NY46). As to the kind of experiment: cell-based. To be noted: IonWorks Quattro, read-out: IWQ Use Nav1.3. (In patch-clamp work, channel activity is measured electrically.)
[3] abbreviates: IonWorks Quattro, Use, read-out: IWQ Use Nav1.5.

hNav1.5, sequence (Q14524 whole entry, looked up): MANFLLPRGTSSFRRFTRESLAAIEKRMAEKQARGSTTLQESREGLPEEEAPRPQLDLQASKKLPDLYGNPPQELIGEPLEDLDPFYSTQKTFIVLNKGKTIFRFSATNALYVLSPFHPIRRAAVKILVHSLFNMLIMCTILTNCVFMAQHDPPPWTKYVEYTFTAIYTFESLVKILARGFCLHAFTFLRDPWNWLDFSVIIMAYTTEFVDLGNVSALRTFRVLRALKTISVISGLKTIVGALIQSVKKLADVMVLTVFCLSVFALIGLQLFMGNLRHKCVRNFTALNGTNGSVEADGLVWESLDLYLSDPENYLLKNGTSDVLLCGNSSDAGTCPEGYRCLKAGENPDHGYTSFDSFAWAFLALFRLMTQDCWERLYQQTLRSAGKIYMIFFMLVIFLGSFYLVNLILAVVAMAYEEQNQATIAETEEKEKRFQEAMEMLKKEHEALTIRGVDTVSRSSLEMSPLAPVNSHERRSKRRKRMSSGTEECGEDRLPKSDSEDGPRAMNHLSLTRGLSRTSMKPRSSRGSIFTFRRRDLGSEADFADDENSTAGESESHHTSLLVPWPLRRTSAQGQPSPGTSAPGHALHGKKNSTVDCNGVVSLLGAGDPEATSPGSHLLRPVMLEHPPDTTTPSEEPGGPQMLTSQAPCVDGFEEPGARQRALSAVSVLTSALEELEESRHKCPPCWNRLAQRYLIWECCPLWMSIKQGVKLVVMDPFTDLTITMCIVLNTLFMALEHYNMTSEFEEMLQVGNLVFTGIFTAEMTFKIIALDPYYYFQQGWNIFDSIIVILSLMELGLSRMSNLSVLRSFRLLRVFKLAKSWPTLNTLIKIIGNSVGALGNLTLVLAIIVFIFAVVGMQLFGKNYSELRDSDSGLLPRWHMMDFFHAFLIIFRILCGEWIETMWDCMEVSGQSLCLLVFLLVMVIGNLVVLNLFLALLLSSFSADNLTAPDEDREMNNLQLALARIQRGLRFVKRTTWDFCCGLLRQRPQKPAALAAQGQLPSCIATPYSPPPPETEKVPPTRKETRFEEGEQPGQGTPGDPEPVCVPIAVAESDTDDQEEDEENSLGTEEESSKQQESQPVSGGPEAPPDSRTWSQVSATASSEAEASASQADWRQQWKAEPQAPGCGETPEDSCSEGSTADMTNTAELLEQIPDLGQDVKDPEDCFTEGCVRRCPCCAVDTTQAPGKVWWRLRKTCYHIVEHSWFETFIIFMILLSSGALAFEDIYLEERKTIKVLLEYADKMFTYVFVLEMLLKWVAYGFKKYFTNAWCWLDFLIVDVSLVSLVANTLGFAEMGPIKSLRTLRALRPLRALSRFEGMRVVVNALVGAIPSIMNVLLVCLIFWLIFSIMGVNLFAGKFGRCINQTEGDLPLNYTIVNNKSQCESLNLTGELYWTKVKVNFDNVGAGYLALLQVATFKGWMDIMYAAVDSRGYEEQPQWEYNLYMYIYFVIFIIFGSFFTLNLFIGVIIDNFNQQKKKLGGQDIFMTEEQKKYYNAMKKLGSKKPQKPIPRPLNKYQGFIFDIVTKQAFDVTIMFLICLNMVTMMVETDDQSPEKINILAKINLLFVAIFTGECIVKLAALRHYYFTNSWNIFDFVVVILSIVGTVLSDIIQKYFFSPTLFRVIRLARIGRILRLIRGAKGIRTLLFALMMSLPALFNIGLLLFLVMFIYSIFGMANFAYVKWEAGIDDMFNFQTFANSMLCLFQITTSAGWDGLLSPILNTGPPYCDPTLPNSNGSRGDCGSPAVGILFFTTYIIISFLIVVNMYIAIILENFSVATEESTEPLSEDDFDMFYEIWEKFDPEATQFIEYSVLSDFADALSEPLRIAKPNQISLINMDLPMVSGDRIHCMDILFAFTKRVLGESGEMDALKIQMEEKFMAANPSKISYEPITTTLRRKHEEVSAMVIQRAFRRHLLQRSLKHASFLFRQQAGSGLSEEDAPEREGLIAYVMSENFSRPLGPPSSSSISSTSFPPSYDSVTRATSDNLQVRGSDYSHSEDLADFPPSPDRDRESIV
hNav1.3, sequence (Q9NY46 whole entry, looked up): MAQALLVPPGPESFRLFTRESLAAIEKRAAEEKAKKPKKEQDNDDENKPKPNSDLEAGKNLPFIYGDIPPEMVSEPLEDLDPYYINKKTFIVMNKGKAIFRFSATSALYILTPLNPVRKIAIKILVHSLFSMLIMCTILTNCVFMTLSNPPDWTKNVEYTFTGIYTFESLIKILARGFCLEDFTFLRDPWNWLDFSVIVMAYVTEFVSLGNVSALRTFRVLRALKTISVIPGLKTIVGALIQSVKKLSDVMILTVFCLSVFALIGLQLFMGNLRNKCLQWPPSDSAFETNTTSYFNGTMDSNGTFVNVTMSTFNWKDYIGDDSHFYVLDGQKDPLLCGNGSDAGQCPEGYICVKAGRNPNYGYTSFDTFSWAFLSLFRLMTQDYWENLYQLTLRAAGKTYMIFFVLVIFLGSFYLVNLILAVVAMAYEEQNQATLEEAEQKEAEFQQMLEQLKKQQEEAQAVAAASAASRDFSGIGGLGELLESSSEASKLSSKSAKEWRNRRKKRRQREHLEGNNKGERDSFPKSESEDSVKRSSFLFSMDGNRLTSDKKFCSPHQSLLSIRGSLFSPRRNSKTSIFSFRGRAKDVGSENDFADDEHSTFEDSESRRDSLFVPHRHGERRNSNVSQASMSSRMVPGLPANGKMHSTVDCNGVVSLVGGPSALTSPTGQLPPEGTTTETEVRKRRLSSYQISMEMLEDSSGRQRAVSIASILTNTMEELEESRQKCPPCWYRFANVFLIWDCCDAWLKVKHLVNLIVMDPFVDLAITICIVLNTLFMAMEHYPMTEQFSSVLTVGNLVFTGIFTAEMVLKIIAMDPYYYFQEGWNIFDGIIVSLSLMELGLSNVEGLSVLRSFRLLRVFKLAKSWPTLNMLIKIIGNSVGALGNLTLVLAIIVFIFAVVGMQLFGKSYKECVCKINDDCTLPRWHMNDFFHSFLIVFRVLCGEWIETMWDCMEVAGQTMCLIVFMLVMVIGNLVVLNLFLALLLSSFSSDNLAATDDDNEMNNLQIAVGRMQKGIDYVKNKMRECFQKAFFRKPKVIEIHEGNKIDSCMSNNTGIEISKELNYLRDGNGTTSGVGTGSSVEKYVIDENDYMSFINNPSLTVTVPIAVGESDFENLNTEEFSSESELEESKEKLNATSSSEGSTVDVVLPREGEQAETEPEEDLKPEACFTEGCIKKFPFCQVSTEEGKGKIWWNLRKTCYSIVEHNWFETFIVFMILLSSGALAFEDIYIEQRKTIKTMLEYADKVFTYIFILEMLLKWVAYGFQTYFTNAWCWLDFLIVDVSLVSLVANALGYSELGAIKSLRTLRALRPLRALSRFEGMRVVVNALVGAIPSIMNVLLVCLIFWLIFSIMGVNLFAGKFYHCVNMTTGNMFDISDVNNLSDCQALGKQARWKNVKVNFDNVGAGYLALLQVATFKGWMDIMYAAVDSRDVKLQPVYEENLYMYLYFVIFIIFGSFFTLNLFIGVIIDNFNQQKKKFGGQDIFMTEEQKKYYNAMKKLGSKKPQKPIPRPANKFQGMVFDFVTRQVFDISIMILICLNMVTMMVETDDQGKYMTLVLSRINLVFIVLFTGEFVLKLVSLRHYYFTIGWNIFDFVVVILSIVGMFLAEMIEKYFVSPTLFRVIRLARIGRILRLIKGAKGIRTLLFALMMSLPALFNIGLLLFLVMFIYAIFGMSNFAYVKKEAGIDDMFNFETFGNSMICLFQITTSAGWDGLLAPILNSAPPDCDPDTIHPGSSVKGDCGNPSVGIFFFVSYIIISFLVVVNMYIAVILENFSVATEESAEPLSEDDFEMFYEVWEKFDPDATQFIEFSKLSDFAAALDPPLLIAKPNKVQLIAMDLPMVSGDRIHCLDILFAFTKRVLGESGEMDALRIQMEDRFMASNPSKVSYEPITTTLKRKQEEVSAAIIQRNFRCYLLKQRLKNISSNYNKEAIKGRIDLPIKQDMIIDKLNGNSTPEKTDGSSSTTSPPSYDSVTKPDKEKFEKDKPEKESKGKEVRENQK

Take `CC[C@H](C)[C@@H]1NC(=O)[C@@H]2CSSC[C@@H]3NC(=O)[C@H](C(C)C)NC(=O)[C@H](CC(C)C)NC(=O)[C@H](CC(N)=O)NC(=O)[C@@H]4CCCN4C(=O)[C@H](CCCNC(=N)N)NC(=O)[C@H](CSSC[C@H](NC(=O)[C@@H](N)CC(=O)O)C(=O)N[C@@H](CC(C)C)C(=O)NCC(=O)N[C@@H](Cc4ccccc4)C(=O)N[C@@H](CCSC)C(=O)N[C@@H](CCCNC(=N)N)C(=O)N[C@@H](CCCCN)C(=O)N2)NC(=O)[C@H](CSSC[C@@H](C(=O)N[C@@H](CCCCN)C(=O)N[C@@H](Cc2ccc(O)cc2)C(=O)N[C@H](C(=O)N[C@@H](Cc2ccccc2)C(N)=O)C(C)C)NC(=O)[C@H](Cc2c[nH]c4ccccc24)NC(=O)[C@H](CCCCN)NC(=O)[C@H](Cc2cnc[nH]2)NC(=O)[C@H]([C@@H](C)O)NC(=O)[C@H](CCCCN)NC(=O)[C@H](CO)NC3=O)NC(=O)[C@H](CCCCN)NC(=O)[C@H](CC(=O)O)NC(=O)[C@H](CC(N)=O)NC(=O)[C@H](CC(=O)O)NC(=O)[C@@H]2CCCN2C1=O` [compound 53] (H-DCLGFMRKCIPDNDKCCRPNLVCSKTHKWCKYVF-NH2; disulfide 2-17, 9-23, 16-30): the IC50 turned out to be 15.2 µM in assay [1] (IWQ Use Nav1.5 (μM)) and 240 nM in assay [2] (Use).

As to `CC[C@H](C)[C@@H]1NC(=O)[C@@H]2CSSC[C@@H]3NC(=O)[C@H](C(C)C)NC(=O)[C@H](CC(C)C)NC(=O)[C@H](CC(N)=O)NC(=O)[C@@H]4CCCN4C(=O)[C@H](CCCNC(=N)N)NC(=O)[C@H](CSSC[C@H](NC(=O)[C@@H](N)CC(=O)O)C(=O)N[C@@H](CC(C)C)C(=O)NCC(=O)N[C@@H](Cc4ccccc4)C(=O)N[C@@H](CCSC)C(=O)N[C@@H](CCCNC(=N)N)C(=O)N[C@@H](CCCCN)C(=O)N2)NC(=O)[C@H](CSSC[C@@H](C(=O)N[C@@H](CCCCN)C(=O)N[C@@H](Cc2ccc(O)cc2)C(=O)N[C@H](C(=O)N[C@@H](Cc2ccccc2)C(N)=O)C(C)C)NC(=O)[C@H](Cc2c[nH]c4ccccc24)NC(=O)[C@H](CCCCN)NC(=O)[C@H](Cc2cnc[nH]2)NC(=O)[C@H]([C@@H](C)O)NC(=O)[C@H](CCCNC(=N)N)NC(=O)[C@H](CO)NC3=O)NC(=O)[C@H](CCCCN)NC(=O)[C@H](CC(=O)O)NC(=O)[C@H](CC(N)=O)NC(=O)[C@H](CCCNC(=N)N)NC(=O)[C@@H]2CCCN2C1=O` [compound 67] (H-DCLGFMRKCIPRNDKCCRPNLVCSRTHKWCKYVF-NH2; disulfide 2-17, 9-23, 16-30), the figures for the IC50 in assay [1] (setting [3]) and in assay [2] (Use) were 5 µM and 140 nM, respectively.

For `CC[C@H](C)[C@@H]1NC(=O)[C@@H]2CSSC[C@@H]3NC(=O)[C@H](C(C)C)NC(=O)[C@H](CC(C)C)NC(=O)[C@H](CCCNC(=N)N)NC(=O)[C@@H]4CCCN4C(=O)[C@H](CCCNC(=N)N)NC(=O)[C@H](CSSC[C@H](NC(=O)[C@@H](N)CC(=O)O)C(=O)N[C@@H](CC(C)C)C(=O)NCC(=O)N[C@@H](Cc4ccccc4)C(=O)N[C@@H](CCSC)C(=O)N[C@@H](CCCNC(=N)N)C(=O)N[C@@H](CCCCN)C(=O)N2)NC(=O)[C@H](CSSC[C@@H](C(=O)N[C@@H](CCCCN)C(=O)N[C@@H](Cc2ccc(O)cc2)C(=O)N[C@H](C(=O)N[C@@H](Cc2ccccc2)C(N)=O)C(C)C)NC(=O)[C@H](Cc2c[nH]c4ccccc24)NC(=O)[C@H](CCCCN)NC(=O)[C@H](Cc2cnc[nH]2)NC(=O)[C@H]([C@@H](C)O)NC(=O)[C@H](CCCNC(=N)N)NC(=O)[C@H](CO)NC3=O)NC(=O)[C@H](CCCCN)NC(=O)[C@H](CC(=O)O)NC(=O)[C@H](CC(N)=O)NC(=O)[C@H](CC(=O)O)NC(=O)[C@@H]2CCCN2C1=O` [compound 69] (H-DCLGFMRKCIPDNDKCCRPRLVCSRTHKWCKYVF-NH2; disulfide 2-17, 9-23, 16-30), the figures for the IC50 in assay [1] (setting [3]) and in assay [2] (Use) were 14.9 µM and 80 nM, respectively.

For `CC[C@H](C)[C@@H]1NC(=O)[C@@H]2CSSC[C@@H]3NC(=O)[C@H](C(C)C)NC(=O)[C@H](CC(C)C)NC(=O)[C@H](CC(N)=O)NC(=O)[C@@H]4CCCN4C(=O)[C@H](CCCNC(=N)N)NC(=O)[C@H](CSSC[C@H](NC(=O)[C@@H](N)CC(=O)O)C(=O)N[C@@H](CC(C)C)C(=O)NCC(=O)N[C@@H](Cc4ccccc4)C(=O)N[C@@H](CCSC)C(=O)N[C@@H](CCCNC(=N)N)C(=O)N[C@@H](CCCCN)C(=O)N2)NC(=O)[C@H](CSSC[C@@H](C(=O)N[C@@H](CCCCN)C(=O)N[C@@H](Cc2ccc(O)cc2)C(=O)N[C@@H](CCCNC(=N)N)C(=O)N[C@@H](Cc2ccccc2)C(N)=O)NC(=O)[C@H](Cc2c[nH]c4ccccc24)NC(=O)[C@H](CCCCN)NC(=O)[C@H](Cc2cnc[nH]2)NC(=O)[C@H]([C@@H](C)O)NC(=O)[C@H](CCCNC(=N)N)NC(=O)[C@H](CO)NC3=O)NC(=O)[C@H](CCCCN)NC(=O)[C@H](CC(=O)O)NC(=O)[C@H](CC(N)=O)NC(=O)[C@H](CC(=O)O)NC(=O)[C@@H]2CCCN2C1=O` [compound 74] (H-DCLGFMRKCIPDNDKCCRPNLVCSRTHKWCKYRF-NH2; disulfide 2-17, 9-23, 16-30), the IC50 was found to be 9.55 µM in assay [1] (Table 26, IonWorks Quattro, use, […], read-out: IWQ Use Nav1.5) and 50 nM in assay [2] (Table 26, use, […]).

Regarding `CC[C@H](C)[C@@H]1NC(=O)[C@@H]2CSSC[C@@H]3NC(=O)[C@H](CCC(=O)O)NC(=O)[C@H](CC(C)C)NC(=O)[C@H](CC(N)=O)NC(=O)[C@@H]4CCCN4C(=O)[C@H](CCCNC(=N)N)NC(=O)[C@H](CSSC[C@H](NC(=O)[C@@H](N)CC(=O)O)C(=O)N[C@@H](CC(C)C)C(=O)NCC(=O)N[C@@H](Cc4ccccc4)C(=O)N[C@@H](CCSC)C(=O)N[C@@H](CCCNC(=N)N)C(=O)N[C@@H](CCCCN)C(=O)N2)NC(=O)[C@H](CSSC[C@@H](C(=O)N[C@@H](CCCCN)C(=O)N[C@@H](Cc2ccc(O)cc2)C(=O)N[C@H](C(=O)N[C@@H](Cc2ccccc2)C(N)=O)C(C)C)NC(=O)[C@H](Cc2c[nH]c4ccccc24)NC(=O)[C@H](CCCCN)NC(=O)[C@H](Cc2cnc[nH]2)NC(=O)[C@H]([C@@H](C)O)NC(=O)[C@H](CCCNC(=N)N)NC(=O)[C@H](CO)NC3=O)NC(=O)[C@H](CCCCN)NC(=O)[C@H](CC(=O)O)NC(=O)[C@H](CC(N)=O)NC(=O)[C@H](CC(=O)O)NC(=O)[C@@H]2CCCN2C1=O` [compound 102] (H-DCLGFMRKCIPDNDKCCRPNLECSRTHKWCKYVF-NH2; disulfide 2-17, 9-23, 16-30), the IC50 in assay [1] (setting [3]) worked out at 20.8 µM; in assay [2] (Use), 2140 nM.

Take `CC[C@H](C)[C@@H]1NC(=O)[C@@H]2CSSC[C@@H]3NC(=O)[C@H](C(C)C)NC(=O)[C@H](CC(C)C)NC(=O)[C@H](CC(N)=O)NC(=O)[C@@H]4CCCN4C(=O)[C@H](CCCNC(=N)N)NC(=O)[C@H](CSSC[C@H](NC(=O)[C@@H](N)CC(=O)O)C(=O)N[C@@H](CC(C)C)C(=O)NCC(=O)N[C@@H](Cc4ccccc4)C(=O)N[C@@H](CCSC)C(=O)N[C@@H](CCCNC(=N)N)C(=O)N[C@@H](CCCCN)C(=O)N2)NC(=O)[C@H](CSSC[C@@H](C(=O)N[C@@H](CCCCN)C(=O)N[C@@H](Cc2ccc(O)cc2)C(=O)N[C@H](C(=O)N[C@@H](Cc2ccccc2)C(=O)O)C(C)C)NC(=O)[C@H](Cc2c[nH]c4ccccc24)NC(=O)[C@H](CCCCN)NC(=O)[C@H](Cc2cnc[nH]2)NC(=O)[C@H]([C@@H](C)O)NC(=O)[C@H](CCCNC(=N)N)NC(=O)[C@H](CO)NC3=O)NC(=O)[C@H](CCCCN)NC(=O)[C@H](CC(=O)O)NC(=O)[C@H](CC(N)=O)NC(=O)[C@H](CC(=O)O)NC(=O)[C@@H]2CCCN2C1=O` [compound 107]: the IC50 in assay [1] (IonWorks Quattro, use-dependent, […], read-out: IWQ Use Nav1.5) was 9.44 µM; in assay [2] (use-dependent, […]), 540 nM.

Consider `CC[C@H](C)[C@@H]1NC(=O)[C@@H]2CSSC[C@@H]3NC(=O)[C@H](C(C)C)NC(=O)[C@H](CC(C)C)NC(=O)[C@H](CC(N)=O)NC(=O)[C@@H]4CCCN4C(=O)[C@H](CCCNC(=N)N)NC(=O)[C@H](CSSC[C@H](NC(=O)[C@@H](N)CC(=O)O)C(=O)N[C@@H](CC(C)C)C(=O)NCC(=O)N[C@@H](Cc4ccccc4)C(=O)N[C@@H](CCSC)C(=O)N[C@@H](CCCNC(=N)N)C(=O)N[C@@H](CCCCN)C(=O)N2)NC(=O)[C@H](CSSC[C@@H](C(=O)N[C@@H](CCCCN)C(=O)N[C@@H](Cc2ccc(O)cc2)C(=O)N[C@H](C(=O)N[C@@H](Cc2ccccc2)C(N)=O)C(C)C)NC(=O)[C@H](Cc2ccc(O)cc2)NC(=O)[C@H](CCCCN)NC(=O)[C@H](Cc2c[nH]cn2)NC(=O)[C@H]([C@@H](C)O)NC(=O)[C@H](CCCNC(=N)N)NC(=O)[C@H](CO)NC3=O)NC(=O)[C@H](CCCCN)NC(=O)[C@H](CC(=O)O)NC(=O)[C@H](CC(N)=O)NC(=O)[C@H](CC(=O)O)NC(=O)[C@@H]2CCCN2C1=O` [compound 113] (H-DCLGFMRKCIPDNDKCCRPNLVCSRTHKYCKYVF-NH2; disulfide 2-17, 9-23, 16-30), for which the IC50 in assay [1] (Table 24, IonWorks Quattro, use, […], read-out: IWQ Use Nav1.5) was 9.49 µM; in assay [2] (Table 24, use, […]), 4030 nM.

In the case of `CC[C@H](C)[C@@H]1NC(=O)[C@@H]2CSSC[C@@H]3NC(=O)[C@H](C(C)C)NC(=O)[C@H](CC(C)C)NC(=O)[C@H](CC(N)=O)NC(=O)[C@@H]4CCCN4C(=O)[C@H](CCCNC(=N)N)NC(=O)[C@H](CSSC[C@H](NC(=O)[C@@H](N)CC(=O)O)C(=O)N[C@@H](CC(C)C)C(=O)NCC(=O)N[C@@H](Cc4ccccc4)C(=O)N[C@@H](CCSC)C(=O)N[C@@H](CCCNC(=N)N)C(=O)N[C@@H](CCCCN)C(=O)N2)NC(=O)[C@H](CSSC[C@@H](C(=O)N[C@@H](CCCCN)C(=O)N[C@@H](Cc2ccc(O)cc2)C(=O)N[C@H](C(=O)N[C@@H](Cc2ccccc2)C(N)=O)C(C)C)NC(=O)[C@H](Cc2c[nH]c4ccccc24)NC(=O)[C@H](CCCCN)NC(=O)[C@H](Cc2cnc[nH]2)NC(=O)[C@H]([C@@H](C)O)NC(=O)[C@H](CCCNC(=N)N)NC(=O)[C@H](C)NC3=O)NC(=O)[C@H](CCCCN)NC(=O)[C@H](CC(=O)O)NC(=O)[C@H](CC(N)=O)NC(=O)[C@H](CC(=O)O)NC(=O)[C@@H]2CCCN2C1=O` [compound 142] (H-DCLGFMRKCIPDNDKCCRPNLVCARTHKWCKYVF-NH2; disulfide 2-17, 9-23, 16-30), the values for the IC50 in assay [1] (setting [3]) and in assay [2] (Use) were 8.2 µM and 250 nM, respectively.
